Reference: patent US20260184663A1, “INDENE COMPOUNDS, PHARMACEUTICAL COMPOSITIONS THEREOF, AND THEIR THERAPEUTIC APPLICATIONS” (NucMito Pharmaceuticals co. Ltd., priority 2022, published 2026)

How the values were obtained:
Assay type in all cases: cell-based
[1] = test system: MDA-MB-231 (breast cancer); assay: Antiproliferative activity (CCK-8 cell viability), MDA-MB-231; details: Homo sapiens, 72 h, read-out: Antiproliferative activity in cancerous cells, MDA-MB-231 (inhibition of cell growth); for inhibition at 3.3 µM: Compound concentration: 3.3 μM; for inhibition at 10 µM: Compound concentration: 10 μM
Procedure, shortened: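 MDA-MB-231 breast cancer cells, grown in DMEM with 10% FBS, were plated in 96-well plates at 2,000-5,000 cells/well. Once attached, they were exposed to compound and incubated at 37° C. for 72 h. Viability was then measured with CCK-8 (10 μL per well, 4 h at 37° C.) by absorbance at 450 nm, relative to DMSO vehicle wells.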

HepG2 (liver cancer) = assay: Antiproliferative activity (CCK-8 cell viability), HepG2; details: Homo sapiens, 72 h, read-out: Antiproliferative activity in cancerous cells, HepG2 (inhibition of cell growth); for inhibition at 3.3 µM: Compound concentration: 3.3 μM; for inhibition at 10 µM: Compound concentration: 10 μM
Procedure, shortened: (§1)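 Cells grown in DMEM (HepG2, SW480), MEM (HeLa) or F-12K (A549), each with 10% FBS, then exposed to compound at 3.3, 10 or 30 μM for 72 h at 37 °C. CCK-8 absorbance at 450 nm; viability expressed as percent of DMSO-treated cells, graded as growth inhibition bands.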

SW480 (colon cancer) = assay: Antiproliferative activity (CCK-8 cell viability), SW480; details: Homo sapiens, 72 h; for inhibition at 3.3 µM: Compound concentration: 3.3 μM; for inhibition at 3.3 µM / inhibition at 10 µM: read-out: Antiproliferative activity in cancerous cells, SW480 (inhibition of cell growth); for inhibition at 10 µM: Compound concentration: 10 μM; for inhibition at 30 µM: Compound concentration: 30 μM, read-out: Antiproliferative activity in cancerous cells, SW480
Procedure, shortened: as §1

[2] = test system: B16F10 (malignant melanoma); assay: Antiproliferative activity (CCK-8 cell viability), B16F10; details: Mus musculus, 72 h, read-out: Antiproliferative activity in cancerous cells, B16F10 (inhibition of cell growth); for inhibition at 3.3 µM: B16-F10, Compound concentration: 3.3 μM; for inhibition at 10 µM: B16-F10, Compound concentration: 10 μM
Procedure, shortened: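 B16F10 melanoma cells grown in DMEM with 10% FBS were plated in 96-well plates at 2,000-5,000 cells/well. After attachment they were exposed to compound in medium for 72 h at 37° C. CCK-8 solution (10 μL) was then added, and after 4 h at 37° C absorbance was read at 450 nm.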

[3] = test system: A431 (epidermoid carcinoma); assay: Antiproliferative activity (CCK-8 cell viability), A431; details: Homo sapiens, 72 h, read-out: Antiproliferative activity in cancerous cells, A431 (inhibition of cell growth); for inhibition at 3.3 µM: A-431, Compound concentration: 3.3 μM; for inhibition at 10 µM: A-431, Compound concentration: 10 μM
Procedure, shortened: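 A431 epidermoid carcinoma cells grown in DMEM with 10% FBS were plated at 2,000-5,000 cells/well in 96-well plates. After attachment they were exposed to compound at 3.3 μM, 10 μM, or 30 μM for 72 h at 37° C. Viability was then assessed by CCK-8 against DMSO vehicle-treated wells.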

[4] = test system: A549 (lung adenocarcinoma); assay: Antiproliferative activity (CCK-8 cell viability), A549; details: Homo sapiens, 72 h, read-out: Antiproliferative activity in cancerous cells, A549 (inhibition of cell growth); for inhibition at 3.3 µM: Compound concentration: 3.3 μM; for inhibition at 10 µM: Compound concentration: 10 μM
Procedure, shortened: as §1

HeLa (cervical cancer) = assay: Antiproliferative activity (CCK-8 cell viability), HeLa; details: Homo sapiens, 72 h, read-out: Antiproliferative activity in cancerous cells, HELA (inhibition of cell growth); for inhibition at 3.3 µM: Compound concentration: 3.3 μM; for inhibition at 10 µM: Compound concentration: 10 μM
Procedure, shortened: as §1

Compound | inhibition at 3.3 µM [1] [%] | inhibition at 10 µM [1] [%] | inhibition at 3.3 µM (HepG2 (liver cancer)) [%] | inhibition at 10 µM (HepG2 (liver cancer)) [%] | inhibition at 3.3 µM (SW480 (colon cancer)) [%] | inhibition at 10 µM (SW480 (colon cancer)) [%] | inhibition at 3.3 µM [2] [%] | inhibition at 10 µM [2] [%] | inhibition at 3.3 µM [3] [%] | inhibition at 10 µM [3] [%] | inhibition at 3.3 µM [4] [%] | inhibition at 10 µM [4] [%] | inhibition at 3.3 µM (HeLa (cervical cancer)) [%] | inhibition at 10 µM (HeLa (cervical cancer)) [%] | inhibition at 30 µM (SW480 (colon cancer)) [%]
CC1=C(CC(=O)O)c2cc(F)ccc2/C1=C\c1ccc(Oc2ccc(F)c(Br)c2)cc1 [C53, (Z)-2-(1-(4-(3-Bromo-4-fluorophenoxy)benzylidene)-5-fluoro-2-methyl-1H-inden-3-yl)acetic acid] | ≥ 50 | ≥ 50 | < 30 | ≥ 50 | < 30 | ≥ 50 | < 30 | ≥ 50 | ≥ 50 | ≥ 50 | < 30 | 30 to 50 | < 30 | ≥ 50 | 
CC1=C(CC(=O)O)c2cc(F)ccc2/C1=C\c1ccc(Oc2ccc(F)cc2Cl)cc1 [C68, (Z)-2-(1-(4-(2-Chloro-4-fluorophenoxy)benzylidene)-5-fluoro-2-methyl-1H-inden-3-yl)acetic acid] | < 30 | < 30 | < 30 | ≥ 50 | ≥ 50 | ≥ 50 | < 30 | < 30 | 30 to 50 | ≥ 50 | < 30 | ≥ 50 | < 30 | < 30 | 
CC1=C(CC(=O)O)c2cc(F)ccc2/C1=C\c1ccc(Oc2ccc(Cl)cc2)cc1C [C64, (Z)-2-(1-(4-(4-Chlorophenoxy)-2-methylbenzylidene)-5-fluoro-2-methyl-1H-inden-3-yl)acetic acid] | < 30 | 30 to 50 | ≥ 50 | ≥ 50 | < 30 | ≥ 50 | 30 to 50 | ≥ 50 | ≥ 50 | ≥ 50 | 30 to 50 | ≥ 50 | ≥ 50 | ≥ 50 | 
CC1=C(CC(=O)O)c2cc(F)ccc2/C1=C\c1ccc(Oc2ccc(O)c(Cl)c2)cc1 [C81, (Z)-2-(1-(4-(3-Chloro-4-hydroxyphenoxy)benzylidene)-5-fluoro-2-methyl-1H-inden-3-yl)acetic acid] | 30 to 50 | ≥ 50 | < 30 | ≥ 50 | < 30 | < 30 | < 30 | ≥ 50 | 30 to 50 | ≥ 50 | 30 to 50 | ≥ 50 | 30 to 50 | ≥ 50 | 
CC1=C(CC(=O)O)c2cc(I)ccc2/C1=C\c1ccc(Oc2ccc(F)cc2)cc1 [C28, (Z)-2-(1-(4-(4-Fluorophenoxy)benzylidene)-5-iodo-2-methyl-1H-inden-3-yl)-acetic acid] | < 30 | ≥ 50 | 30 to 50 | ≥ 50 | < 30 | ≥ 50 | 30 to 50 | ≥ 50 | < 30 | ≥ 50 | 30 to 50 | ≥ 50 | 30 to 50 | ≥ 50 | 
CC1=C(CC(=O)O)c2cc(F)ccc2/C1=C\c1ccc(CCc2ccc(F)cc2)cc1 [B145, (Z)-2-(5-Fluoro-1-(4-(4-fluorophenethyl)benzylidene)-2-methyl-1H-inden-3-yl)acetic acid] | < 30 | < 30 | < 30 | ≥ 50 | < 30 | < 30 | < 30 | < 30 | ≥ 50 | ≥ 50 | < 30 | < 30 | 30 to 50 | ≥ 50 | 30 to 50
CC1=C(CC(=O)O)c2cc(F)ccc2/C1=C\c1ccc(Oc2ccc(Cl)cc2Cl)cc1 [C66, (Z)-2-(1-(4-(2,4-Dichlorophenoxy)benzylidene)-5-fluoro-2-methyl-1H-inden-3-yl)acetic acid] | < 30 | ≥ 50 | ≥ 50 | ≥ 50 | < 30 | < 30 | < 30 | ≥ 50 | ≥ 50 | ≥ 50 | 30 to 50 | ≥ 50 | ≥ 50 | ≥ 50 | 
CC1=C(CC(=O)O)c2cc(F)ccc2/C1=C\c1ccc(CCCc2ccc(Cl)cc2)cc1 [B119, (Z)-2-(1-(4-(3-(4-Chlorophenyl)propyl)benzylidene)-5-fluoro-2-methyl-1H-inden-3-yl)acetic acid] | < 30 | < 30 | ≥ 50 | ≥ 50 | ≥ 50 | ≥ 50 | < 30 | ≥ 50 | ≥ 50 | ≥ 50 | 30 to 50 | ≥ 50 | < 30 | ≥ 50 | 
COc1cc(Oc2ccc(Cl)cc2)ccc1/C=C1/C(C)=C(CC(=O)O)c2cc(F)ccc21 [C58, (Z)-2-(1-(4-(4-Chlorophenoxy)-2-methoxybenzylidene)-5-fluoro-2-methyl-1H-inden-3-yl)acetic acid] | < 30 | < 30 | ≥ 50 | ≥ 50 | < 30 | < 30 | ≥ 50 | ≥ 50 | ≥ 50 | ≥ 50 | ≥ 50 | ≥ 50 | ≥ 50 | ≥ 50 | 30 to 50
